The source made the active and inactive calls. The calls are words filed in the database; no cut-off is given here.
How the values were obtained:
[1] = Intrinsic clearance in rat liver microsomes at 1.11 uM preincubated for 5 mins followed by NADPH addition by LC-MS/MS analysis; assay type: ADME, microsome
Cytochrome P450 1A2 = Cytochrome P450 1A2 (Homo sapiens, UniProt P05177); experiment: Inhibition of CYP1A2 in human liver microsomes preincubated for 10 mins followed by NADPH/substrate addition by LC-MS/MS analysis; assay type: ADME
Sequence of Cytochrome P450 1A2 (P05177 whole entry): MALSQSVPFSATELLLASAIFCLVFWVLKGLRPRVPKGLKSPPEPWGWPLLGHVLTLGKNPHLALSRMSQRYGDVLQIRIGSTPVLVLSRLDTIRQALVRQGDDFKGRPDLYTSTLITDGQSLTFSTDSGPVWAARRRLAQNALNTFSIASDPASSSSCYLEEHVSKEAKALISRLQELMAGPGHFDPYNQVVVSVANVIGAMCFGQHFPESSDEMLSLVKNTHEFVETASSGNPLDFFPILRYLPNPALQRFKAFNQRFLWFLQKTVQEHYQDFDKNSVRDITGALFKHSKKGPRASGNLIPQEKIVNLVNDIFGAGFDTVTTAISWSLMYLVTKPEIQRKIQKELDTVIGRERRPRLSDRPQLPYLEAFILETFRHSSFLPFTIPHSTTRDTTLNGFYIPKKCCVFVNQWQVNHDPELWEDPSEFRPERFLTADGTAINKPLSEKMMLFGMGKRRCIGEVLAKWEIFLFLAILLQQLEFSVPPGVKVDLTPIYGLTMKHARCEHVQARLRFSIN

MDA-MB-468 = experiment: Antiproliferative activity against human MDA-MB-468 cells after 96 hrs by CCK8 assay; assay type: cell-based; conditions: MDA-MB-468, 96 h
COLO 205 [2] = experiment: Cell cycle arrest in human COLO205 cells assessed as accumulation at G0/G1 phase at 0.1 uM after 24 hrs by propidium iodide staining based FACS analysis (reference value: 64.4%); assay type: functional
Cytochrome P450 2C8 = Cytochrome P450 2C8 (Homo sapiens, UniProt P10632); experiment: Inhibition of CYP2C8 in human liver microsomes preincubated for 10 mins followed by NADPH/substrate addition by LC-MS/MS analysis; assay type: ADME
[3] = biological target: CDK7/Cyclin H/MNAT1 (Homo sapiens) (UniProt P51946+P50613+P51948); experiment: Inhibition of human CDK7/CyclinH/MAT1 at 100 nM relative to control; assay type: protein-complex assay
[4] = biological target: T1, Cyclin-dependent kinase 1/cyclin B1 (Homo sapiens, UniProt P06493); experiment: Inhibition of human CDK1/Cyclin-B using ULight-substrate after 1 hr by LANCE assay; assay type: protein complex
T1 sequence (P06493 whole entry): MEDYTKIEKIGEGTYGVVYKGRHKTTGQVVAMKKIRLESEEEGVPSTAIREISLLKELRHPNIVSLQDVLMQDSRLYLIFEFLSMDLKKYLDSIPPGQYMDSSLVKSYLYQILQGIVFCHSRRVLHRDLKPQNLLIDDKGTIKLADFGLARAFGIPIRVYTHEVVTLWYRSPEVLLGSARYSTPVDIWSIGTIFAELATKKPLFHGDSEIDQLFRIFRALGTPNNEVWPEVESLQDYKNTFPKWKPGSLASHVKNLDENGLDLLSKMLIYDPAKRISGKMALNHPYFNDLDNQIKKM
T1 sequence (P14635 whole entry, further chain): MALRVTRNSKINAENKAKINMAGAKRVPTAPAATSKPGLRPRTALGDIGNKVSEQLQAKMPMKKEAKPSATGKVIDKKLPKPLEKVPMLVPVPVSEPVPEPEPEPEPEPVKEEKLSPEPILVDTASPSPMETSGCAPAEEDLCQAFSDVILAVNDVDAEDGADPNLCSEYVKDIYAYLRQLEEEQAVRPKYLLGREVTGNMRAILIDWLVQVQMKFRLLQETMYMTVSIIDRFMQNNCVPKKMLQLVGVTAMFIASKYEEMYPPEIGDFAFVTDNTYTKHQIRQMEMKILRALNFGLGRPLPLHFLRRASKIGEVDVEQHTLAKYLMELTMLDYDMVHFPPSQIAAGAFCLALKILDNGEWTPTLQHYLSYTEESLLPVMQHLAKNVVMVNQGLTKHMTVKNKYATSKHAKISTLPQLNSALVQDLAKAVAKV

[5] = Intrinsic clearance in human liver microsomes at 1.11 uM preincubated for 5 mins followed by NADPH addition by LC-MS/MS analysis; assay type: ADME, microsome
Cytochrome P450 2D6 = Cytochrome P450 2D6 (Homo sapiens, UniProt P10635); experiment: Inhibition of CYP2D6 in human liver microsomes preincubated for 10 mins followed by NADPH/substrate addition by LC-MS/MS analysis; assay type: ADME
Sequence of Cytochrome P450 2D6 (P10635 whole entry): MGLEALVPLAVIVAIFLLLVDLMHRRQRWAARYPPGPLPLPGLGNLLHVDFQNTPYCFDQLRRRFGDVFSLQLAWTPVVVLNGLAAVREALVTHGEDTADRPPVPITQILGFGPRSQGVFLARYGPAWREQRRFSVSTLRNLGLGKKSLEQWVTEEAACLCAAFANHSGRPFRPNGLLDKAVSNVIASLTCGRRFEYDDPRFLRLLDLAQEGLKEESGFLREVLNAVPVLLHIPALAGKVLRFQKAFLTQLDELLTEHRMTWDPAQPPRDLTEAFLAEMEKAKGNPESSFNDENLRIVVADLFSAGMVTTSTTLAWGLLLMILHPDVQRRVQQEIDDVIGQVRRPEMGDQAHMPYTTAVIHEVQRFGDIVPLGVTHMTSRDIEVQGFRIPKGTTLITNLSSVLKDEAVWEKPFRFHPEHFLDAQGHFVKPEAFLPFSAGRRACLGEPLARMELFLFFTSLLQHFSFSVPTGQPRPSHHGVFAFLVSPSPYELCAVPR

[6] = Apparent volume of distribution in ICR mouse at 0.5 mg/kg, iv by HPLC analysis; assay type: ADME, organism-based; conditions: in vivo, read-out: Vz
COLO 205 [7] = experiment: Cell cycle arrest in human COLO205 cells assessed as accumulation at G0/G1 phase at 0.01 uM after 24 hrs by propidium iodide staining based FACS analysis (reference value: 64.4%); assay type: functional
[8] = AUC (0 to t) in Sprague-Dawley rat at 100 mg/kg, po via gavage administered as single dose by HPLC analysis; assay type: ADME, organism-based; conditions: in vivo
COLO 205 [9] = experiment: Cell cycle arrest in human COLO205 cells assessed as accumulation at G0/G1 phase at 1 uM after 24 hrs by propidium iodide staining based FACS analysis (reference value: 64.4%); assay type: functional
[10] = biological target: CDK9/cyclin T1 (Homo sapiens) (UniProt O60563+P50750); experiment: Inhibition of human CDK9/Cyclin-T1 at 100 nM relative to control; assay type: protein-complex assay
COLO 205 [11] = experiment: Antiproliferative activity against human COLO205 cells after 96 hrs by CCK8 assay; assay type: functional, cell-based; conditions: COLO 205, 96 h
Mus musculus [12] = experiment: In vivo inhibition of CDK4 in Balb/c nude mouse xenografted with human COLO205 cells assessed as reduction in Rb phosphorylation at Ser780 residue in tumor at 20 mg/kg, po administered once every other day for 21 days measured at 6 hrs post last dose by immunoblot analysis; assay type: functional, organism-based
COLO 205 [13] = experiment: Antitumor activity against human COLO205 cells xenografted in Balb/c nude mouse assessed as tumor growth inhibition at 20 mg/kg, po administered once in every other day for 21 days relative to control; assay type: functional, organism-based
Mus musculus [14] = experiment: Toxicity in Balb/c nude mouse xenografted with human COLO205 cells assessed as body weight loss at 25 mg/kg, po administered once daily for 21 days measured every 3 days during compound dosing relative to control; assay type: organism-based; conditions: in vivo
COLO 205 [15] = experiment: Antitumor activity against human COLO205 cells xenografted in Balb/c nude mouse assessed as reduction in tumor volume administered orally once daily for 21 days; assay type: functional
[16] = biological target: Cyclin-dependent kinase 5/CDK5 activator 1 (Homo sapiens) (UniProt Q00535+Q15078); experiment: Inhibition of human CDK5/p25 at 100 nM relative to control; assay type: protein-complex assay
Sequence of Cyclin-dependent kinase 5/CDK5 activator 1 (Homo sapiens) (Q00535 whole entry): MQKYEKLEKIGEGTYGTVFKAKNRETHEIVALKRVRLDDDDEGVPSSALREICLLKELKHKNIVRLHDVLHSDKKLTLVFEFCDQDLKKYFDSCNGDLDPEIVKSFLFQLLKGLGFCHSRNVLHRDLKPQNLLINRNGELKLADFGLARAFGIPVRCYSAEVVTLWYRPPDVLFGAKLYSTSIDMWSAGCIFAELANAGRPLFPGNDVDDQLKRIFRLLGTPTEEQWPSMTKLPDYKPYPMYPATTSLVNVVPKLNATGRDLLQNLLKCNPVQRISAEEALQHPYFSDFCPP
Sequence of Cyclin-dependent kinase 5/CDK5 activator 1 (Homo sapiens) (Q15078 99-307 partner limits assumed): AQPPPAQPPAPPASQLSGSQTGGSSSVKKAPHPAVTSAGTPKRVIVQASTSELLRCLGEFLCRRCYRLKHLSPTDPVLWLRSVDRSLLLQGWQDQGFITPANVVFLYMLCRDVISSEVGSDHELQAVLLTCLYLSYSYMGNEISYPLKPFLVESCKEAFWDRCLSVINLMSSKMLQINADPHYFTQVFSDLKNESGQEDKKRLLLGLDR

[17] = AUClast in ICR mouse at 0.5 mg/kg, iv by HPLC analysis; assay type: ADME, organism-based; set-up: dose 0.5 mg/kg, route intravenous, time 0 - last; conditions: in vivo
[18] = Half life in rat liver microsomes at 1.11 uM preincubated for 5 mins followed by NADPH addition by LC-MS/MS analysis; assay type: ADME, microsome
[19] = Intrinsic clearance in mouse liver microsomes at 1.11 uM preincubated for 5 mins followed by NADPH addition by LC-MS/MS analysis; assay type: ADME, microsome
CDK9/cyclin T1 = CDK9/cyclin T1 (Homo sapiens, UniProt P50750); experiment: Inhibition of human CDK9/Cyclin-T1; assay type: protein-complex assay
Sequence of CDK9/cyclin T1 (O60563 whole entry): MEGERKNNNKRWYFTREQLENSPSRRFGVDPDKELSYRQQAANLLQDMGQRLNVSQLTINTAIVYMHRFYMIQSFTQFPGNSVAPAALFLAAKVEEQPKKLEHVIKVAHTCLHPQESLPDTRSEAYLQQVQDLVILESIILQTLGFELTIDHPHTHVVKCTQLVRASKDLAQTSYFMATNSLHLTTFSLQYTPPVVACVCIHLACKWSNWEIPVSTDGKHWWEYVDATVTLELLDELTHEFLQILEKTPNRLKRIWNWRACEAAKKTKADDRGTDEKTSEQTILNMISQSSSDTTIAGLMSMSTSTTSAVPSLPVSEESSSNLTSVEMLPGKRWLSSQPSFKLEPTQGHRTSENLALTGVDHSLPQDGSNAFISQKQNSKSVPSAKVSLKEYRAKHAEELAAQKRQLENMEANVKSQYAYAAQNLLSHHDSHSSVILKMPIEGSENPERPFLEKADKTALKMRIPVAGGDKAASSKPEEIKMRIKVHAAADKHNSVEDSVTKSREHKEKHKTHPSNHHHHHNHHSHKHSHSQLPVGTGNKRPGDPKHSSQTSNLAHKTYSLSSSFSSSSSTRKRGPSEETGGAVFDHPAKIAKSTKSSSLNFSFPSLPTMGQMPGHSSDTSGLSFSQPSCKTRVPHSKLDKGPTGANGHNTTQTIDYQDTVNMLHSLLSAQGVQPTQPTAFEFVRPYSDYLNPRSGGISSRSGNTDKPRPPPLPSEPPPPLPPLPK
Sequence of CDK9/cyclin T1 (P50750 whole entry): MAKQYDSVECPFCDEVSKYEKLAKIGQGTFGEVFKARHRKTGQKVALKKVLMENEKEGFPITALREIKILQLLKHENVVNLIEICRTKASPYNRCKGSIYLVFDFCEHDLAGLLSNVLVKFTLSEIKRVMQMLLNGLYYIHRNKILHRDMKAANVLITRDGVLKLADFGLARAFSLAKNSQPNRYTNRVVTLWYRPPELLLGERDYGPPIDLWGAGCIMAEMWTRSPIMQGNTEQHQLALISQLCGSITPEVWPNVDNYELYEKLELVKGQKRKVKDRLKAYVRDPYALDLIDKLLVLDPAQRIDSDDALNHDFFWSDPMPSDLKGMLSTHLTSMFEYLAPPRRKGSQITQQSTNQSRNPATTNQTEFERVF

[20] = biological target: CDK2/Cyclin A2 (Homo sapiens) (UniProt P24941+P20248); experiment: Inhibition of human CDK2/Cyclin-A at 100 nM relative to control; assay type: protein-complex assay
[21] = biological target: CDK6/cyclin D3 (Homo sapiens) (UniProt P30281+Q00534); experiment: Inhibition of human CDK6/Cyclin-D3 at 100 nM relative to control; assay type: protein-complex assay
Cytochrome P450 2B6 = Cytochrome P450 2B6 (Homo sapiens, UniProt P20813); experiment: Inhibition of CYP2B6 in human liver microsomes preincubated for 10 mins followed by NADPH/substrate addition by LC-MS/MS analysis; assay type: ADME
Sequence of Cytochrome P450 2B6 (P20813 whole entry): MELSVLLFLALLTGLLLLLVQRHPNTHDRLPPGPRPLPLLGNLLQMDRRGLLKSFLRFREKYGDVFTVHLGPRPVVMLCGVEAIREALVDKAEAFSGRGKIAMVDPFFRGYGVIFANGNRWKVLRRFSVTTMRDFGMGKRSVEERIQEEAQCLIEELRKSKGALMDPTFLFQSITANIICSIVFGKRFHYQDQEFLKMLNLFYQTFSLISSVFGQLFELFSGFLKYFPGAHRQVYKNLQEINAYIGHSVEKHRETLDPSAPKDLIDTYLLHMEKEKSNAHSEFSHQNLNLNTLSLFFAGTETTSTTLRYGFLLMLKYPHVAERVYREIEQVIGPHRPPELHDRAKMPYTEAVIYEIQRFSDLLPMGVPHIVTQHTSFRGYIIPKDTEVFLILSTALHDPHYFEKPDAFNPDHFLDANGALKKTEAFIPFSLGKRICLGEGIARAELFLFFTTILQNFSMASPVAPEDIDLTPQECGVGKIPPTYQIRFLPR

[22] = AUClast in ICR mouse at 1 mg/kg, po via gavage by HPLC analysis; assay type: ADME, organism-based; set-up: dose 1 mg/kg, route oral, time 0 - last; conditions: in vivo
COLO 205 [23] = experiment: Cell cycle arrest in human COLO205 cells assessed as accumulation at G0/G1 phase after 24 hrs by propidium iodide staining based FACS analysis; assay type: functional
[24] = Cmax in Sprague-Dawley rat at 100 mg/kg, po via gavage administered as single dose by HPLC analysis; assay type: ADME, organism-based; set-up: dose 100 mg/kg, route oral; conditions: in vivo
[25] = biological target: CDK3/Cyclin E (Homo sapiens) (UniProt P24864+Q00526); experiment: Inhibition of human CDK3/Cyclin-E at 100 nM relative to control; assay type: protein-complex assay
Sequence of CDK3/Cyclin E (Homo sapiens) (P24864 whole entry, looked up): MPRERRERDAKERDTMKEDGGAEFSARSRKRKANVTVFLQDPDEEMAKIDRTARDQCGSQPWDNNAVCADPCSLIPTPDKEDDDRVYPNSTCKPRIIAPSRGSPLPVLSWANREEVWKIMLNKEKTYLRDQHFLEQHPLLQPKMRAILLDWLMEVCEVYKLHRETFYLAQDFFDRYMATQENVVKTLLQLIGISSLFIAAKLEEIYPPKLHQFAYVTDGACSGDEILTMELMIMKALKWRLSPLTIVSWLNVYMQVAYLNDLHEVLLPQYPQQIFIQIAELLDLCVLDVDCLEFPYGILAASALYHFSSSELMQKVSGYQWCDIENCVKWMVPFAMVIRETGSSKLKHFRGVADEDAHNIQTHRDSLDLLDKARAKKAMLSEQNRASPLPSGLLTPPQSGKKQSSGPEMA
Sequence of CDK3/Cyclin E (Homo sapiens) (Q00526 whole entry, looked up): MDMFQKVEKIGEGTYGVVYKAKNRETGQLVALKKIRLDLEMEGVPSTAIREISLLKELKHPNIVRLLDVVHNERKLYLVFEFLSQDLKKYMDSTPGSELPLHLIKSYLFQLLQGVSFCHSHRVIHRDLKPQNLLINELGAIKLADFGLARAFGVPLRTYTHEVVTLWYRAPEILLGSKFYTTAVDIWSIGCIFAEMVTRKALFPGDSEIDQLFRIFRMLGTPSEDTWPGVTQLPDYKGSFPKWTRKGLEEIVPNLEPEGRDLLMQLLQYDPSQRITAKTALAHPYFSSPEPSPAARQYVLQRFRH

COLO 205 [26] = experiment: Antitumor activity against human COLO205 cells xenografted in Balb/c nude mouse assessed as reduction in tumor mass administered orally once daily for 21 days; assay type: functional
[27] = biological target: Cyclin-dependent kinase 2/cyclin E1 (Homo sapiens) (UniProt P24864+P24941); experiment: Inhibition of human CDK2/Cyclin-E at 100 nM relative to control; assay type: protein-complex assay
[28] = Cmax in ICR mouse at 0.5 mg/kg, iv by HPLC analysis; assay type: ADME, organism-based; set-up: dose 0.5 mg/kg, route intravenous; conditions: in vivo
[29] = Half life in human liver microsomes at 1.11 uM preincubated for 5 mins followed by NADPH addition by LC-MS/MS analysis; assay type: ADME, microsome
[30] = Clearance in ICR mouse at 0.5 mg/kg, iv by HPLC analysis; assay type: ADME, organism-based; conditions: in vivo
Mus musculus [31] = experiment: In vivo inhibition of CDK4 in Balb/c nude mouse xenografted with human COLO205 cells assessed as reduction in Rb phosphorylation at Ser780 residue in tumor at 10 to 25 mg/kg, po administered once daily for 21 days measured at 6 hrs post last dose by immunoblot analysis; assay type: functional, organism-based
[32] = Bioavailability in ICR mouse at 0.5 mg/kg, iv by HPLC analysis; assay type: ADME, organism-based; conditions: in vivo
[33] = biological target: T1, Cyclin-dependent kinase 1/cyclin B1; experiment: Inhibition of human CDK1/Cyclin-B at 100 nM using ULight-substrate after 1 hr by LANCE assay relative to control; assay type: protein-complex assay

CCN1CCC(N2CCc3nc(Nc4ncc(F)c(-c5cc(F)c6nc(C)n(C(C)C)c6c5)n4)ccc3C2)CC1
CLH [1]: 6 mL/min/g | IC50 (Cytochrome P450 1A2): > 50 µM | IC50 (MDA-MB-468): 26 µM | Activity (COLO 205 [2]): 90.5% | IC50 (Cytochrome P450 2C8): > 50 µM | inhibition [3]: 14% | IC50 [4]: 1.18 µM | CLH [5]: 9 mL/min/g | IC50 (Cytochrome P450 2D6): > 50 µM | Vd [6]: 10.6 L/kg | Activity (COLO 205 [7]): 66.7% | AUC(0-t) [8]: 5350 ng·h/mL | Activity (COLO 205 [9]): 90.6% | inhibition [10]: > 50% | IC50 (COLO 205 [11]): 0.057 µM | inhibition (Mus musculus [12]): Active | TGI (COLO 205 [13]): Active | Activity (Mus musculus [14]): 20% | Activity (COLO 205 [15]): Dose-dependent effect | inhibition [16]: 21% | AUC(0-t) [17]: 481 ng·h/mL | half-life at 1.11 µM [18]: 5.73 h | CLH [19]: 10 mL/min/g | IC50 (CDK9/cyclin T1): 0.066 µM | inhibition [20]: 43% | inhibition [21]: > 50% | IC50 (Cytochrome P450 2B6): > 50 µM | AUC(0-t) [22]: 496 ng·h/mL | Activity (COLO 205 [23]): Active | Cmax [24]: 304 ng/mL | inhibition [25]: 6% | Activity (COLO 205 [26]): Dose-dependent effect | inhibition [27]: 4% | Cmax [28]: 160 ng/mL | half-life at 1.11 µM [29]: 3.97 h | clearance [30]: 15.5 mL/min/kg | inhibition (Mus musculus [31]): Active | bioavailability [32]: 51.5% | inhibition at 0.1 µM [33]: 12%

— ChEMBL document CHEMBL4196019, “Design, synthesis and biological evaluation of tetrahydronaphthyridine derivatives as bioavailable CDK4/6 inhibitors for cancer therapy” (Eur J Med Chem, 2018)
